Where a SMILES comes first, the peptide text is derived from it. Bridges are numbered along the chain shown (N, C = ends). [ ]: non-standard residue; d: D form. Dab(iPr) = CC(C)NCC[C@H](N)C(=O)O; Hyp = O=C(O)[C@@H]1C[C@@H](O)CN1; Pen = CC(C)(S)[C@H](N)C(=O)O; dDab = NCC[C@@H](N)C(=O)O; Orn = NCCC[C@H](N)C(=O)O; Dab = NCC[C@H](N)C(=O)O
Key:
Format in all cases: cell-based
[1] = test system: Escherichia coli MCR-1 Af 45; settings: MCR-1 Af 45
Summary of the method: (§1)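 The MIC is the lowest peptide concentration, in μg/mL, with no visible growth after 18-20 h incubation at 35 °C. Serial two-fold peptide dilutions in water with 0.002% P-80 final were added to bacteria in cation-adjusted MHII broth, about 5×10^5 CFU/mL, following modified CLSI microdilution.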

[2] = test system: Klebsiella pneumoniae SSI3010; settings: SSI3010
Summary of the method: as §1

[3] = test system: Escherichia coli ATCC 25922; settings: ATCC 25922
Summary of the method: as §1

[4] = test system: human red blood cells (hRBC); settings: red cells of human, 1 h, 200 μg/mL
Summary of the method: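 Percent hemolysis derived from OD540 of supernatants relative to full lysis by 2.5% Triton X-100 (PBS baseline). Washed fresh human erythrocytes (20% v/v) were exposed to 200 μg/mL peptide for 1 h at 37 °C with shaking.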

| SMILES | Escherichia coli MCR-1 Af45 MIC [1] [µg/mL] | Klebsiella pneumoniae SSI3010 MIC [2] [µg/mL] | Escherichia coli ATCC 25922 MIC [3] [µg/mL] | Hemolysis at 0.2 g/L [4] [%] |
| --- | --- | --- | --- | --- |
| CC[C@H](C)[C@H](NC(=O)[C@@H]1C[C@@H](O)CN1C(=O)[C@@H](N)C(C)C)C(=O)N[C@@H]1C(=O)N[C@@H](Cc2ccc(O)cc2)C(=O)N[C@@H](CO)C(=O)N[C@@H](CC(N)=O)C(=O)N[C@@H](CCCNC(=N)N)C(=O)N[C@@H](CCN)C(=O)N[C@@H]([C@@H](C)O)C(=O)N[C@H](CCN)C(=O)N[C@@H](CCCCN)C(=O)N[C@@H](CCN)C(=O)N[C@@H](CC(N)=O)C(=O)N[C@H](C(=O)N[C@@H](Cc2ccc(O)cc2)C(=O)O)CSSC1(C)C [Example 61, Val-Hyp-Ile-Pen-Tyr-Ser-Asn-Arg-Dab-Thr-^DDab-Lys-Dab-Asn-Cys-Tyr] (H-V[Hyp]I[Pen]YSNR[Dab]T[dDab]K[Dab]NCY-OH; disulfide 4-15) | 0.25 | 0.5 | 0.25 | <1 |
| CC[C@H](C)[C@H](NC(=O)[C@@H]1C[C@@H](O)CN1C(=O)[C@@H](N)C(C)C)C(=O)N[C@@H]1C(=O)N[C@@H](Cc2ccc(O)cc2)C(=O)N[C@@H](CO)C(=O)N[C@@H](CC(N)=O)C(=O)N[C@@H](CCCNC(=N)N)C(=O)N[C@@H](CCN)C(=O)N[C@@H]([C@@H](C)O)C(=O)N[C@H](CCN)C(=O)N[C@@H](CCCCN)C(=O)N[C@@H](CCN)C(=O)N[C@@H](CCCCN)C(=O)N[C@H](C(=O)N[C@@H](Cc2ccc(O)cc2)C(=O)O)CSSC1(C)C [Example 62, Val-Hyp-Ile-Pen-Tyr-Ser-Asn-Arg-Dab-Thr-^DDab-Lys-Dab-Lys-Cys-Tyr] (H-V[Hyp]I[Pen]YSNR[Dab]T[dDab]K[Dab]KCY-OH; disulfide 4-15) | 0.0625 | 0.25 | 0.125 | <1 |
| CC[C@H](C)[C@H](NC(=O)[C@@H]1C[C@@H](O)CN1C(=O)[C@@H](N)C(C)C)C(=O)N[C@@H]1C(=O)N[C@@H](Cc2ccc(O)cc2)C(=O)N[C@@H](CO)C(=O)N[C@@H](CC(N)=O)C(=O)N[C@@H](CCCNC(=N)N)C(=O)N[C@@H](CCN)C(=O)N[C@@H]([C@@H](C)O)C(=O)N[C@H](CCN)C(=O)N[C@@H](CCCCN)C(=O)N[C@@H](CCN)C(=O)N[C@@H](CCNC(C)C)C(=O)N[C@H](C(=O)N[C@@H](Cc2ccc(O)cc2)C(=O)O)CSSC1(C)C [Example 63, Val-Hyp-Ile-Pen-Tyr-Ser-Asn-Arg-Dab-Thr-^DDab-Lys-Dab-Dab(iPr)-Cys-Tyr] (H-V[Hyp]I[Pen]YSNR[Dab]T[dDab]K[Dab][Dab(iPr)]CY-OH; disulfide 4-15) | 0.0625 | 0.25 | 0.125 | <1 |
| CC[C@H](C)[C@H](NC(=O)[C@@H]1C[C@@H](O)CN1C(=O)[C@@H](N)C(C)C)C(=O)N[C@@H]1C(=O)N[C@@H](Cc2ccc(O)cc2)C(=O)N[C@@H](CO)C(=O)N[C@@H](CC(N)=O)C(=O)N[C@@H](CCCNC(=N)N)C(=O)N[C@@H](CCN)C(=O)N[C@@H]([C@@H](C)O)C(=O)N[C@H](CCN)C(=O)N[C@@H](CCCCN)C(=O)N[C@@H](CCN)C(=O)N[C@@H](CCCN)C(=O)N[C@H](C(=O)N[C@@H](Cc2ccc(O)cc2)C(=O)O)CSSC1(C)C [Example 64, Val-Hyp-Ile-Pen-Tyr-Ser-Asn-Arg-Dab-Thr-^DDab-Lys-Dab-Orn-Cys-Tyr] (H-V[Hyp]I[Pen]YSNR[Dab]T[dDab]K[Dab][Orn]CY-OH; disulfide 4-15) | 0.0625 | 0.125 | 0.0625 | <1 |

From US20240336654A1, “ANTIMICROBIAL PEPTIDOMIMETICS” (SPEXIS AG, priority 2021, published 2024)
